Results taken from patent EP3502102A1, “STING INHIBITORS” (ECOLE POLYTECHNIQUE FEDERALE DE LAUSANNE (EPFL), priority 2017, dated 2019).

Tests used:
STING [1] = target: T1, STING (Mus musculus, UniProt Q3TBT3); test: Blue native gel assay of STING clusters; type: cell-based; design: expressed in transfected cells; host or cells: HEK293T; settings: C-178, C-176 1 µM, 2-BP 50 µM; CMA 1.5 h
T1 sequence (Q3TBT3 1-378): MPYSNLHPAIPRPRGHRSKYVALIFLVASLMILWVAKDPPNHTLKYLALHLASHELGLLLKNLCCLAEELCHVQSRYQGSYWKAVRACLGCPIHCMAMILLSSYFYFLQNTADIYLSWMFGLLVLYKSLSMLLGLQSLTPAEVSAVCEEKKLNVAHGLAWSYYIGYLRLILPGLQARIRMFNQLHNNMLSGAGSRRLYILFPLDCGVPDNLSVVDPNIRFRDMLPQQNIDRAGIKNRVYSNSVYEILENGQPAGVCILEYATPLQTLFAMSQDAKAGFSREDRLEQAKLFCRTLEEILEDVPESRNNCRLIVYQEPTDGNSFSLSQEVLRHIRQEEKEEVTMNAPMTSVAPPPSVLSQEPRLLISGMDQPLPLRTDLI
Method: (§1) Reporter activity was measured 16 h after compound treatment. A nonlinear regression analysis was performed. […] Circles indicate substitutes compared to C-176. d, e, Chemical compounds from (c) were tested at 0.5 µM for inhibitory activity in HEK293T cells transfected with STING (e) or RIG-I (f) in conjunction with IFN-• luciferase reporter, respectively. b, e, f, Values of inhibitor-treated cells were normalized to DMSO-treated cells. […] Cytokine levels were normalized to DMSO-treated control cells. A nonlinear regression analysis was performed for cGAMP stimulation. b, c, BMDMs were pre-treated with C-178 (0.25 µM) and stimulated with cGAMP, cyclic di-GMP, CMA, 90mer dsDNA or LPS for 3 h. The induction of Ifnb1 mRNA levels was assessed by RT-qPCR. d, Heatmaps of RNA sequencing analysis of BMDMs treated with DMSO or CMA and with or without addition of C-178. […] Reporter activity was measured 16 h after transfection and values were normalized to DMSO-treated control cells. c, BMDMs were treated with C-178 (0.25 µM) for 1 h, washed or left untreated and after an additional hour stimulated with cGAMP. […] Flag-STING was immunoprecipitated from whole cell lysate and analysed by autoradiography. In parallel, cell lysates were analysed by immunoblotting for p-TBK1 and STING. d, HEK293T cells expressing STING were treated as indicated (C-178 (1 µM)) and stimulated with CMA for 1.5 h. […]

STING [2] = target: T1, STING; test: IFN-beta luciferase reporter in HEK293T cells transfected with STING, alone or with a cyclic dinucleotide synthase; type: cell-based; design: expressed in transfected cells; host or cells: HEK293T
Method: Reporter activity was measured 16 h after compound treatment. A nonlinear regression analysis was performed. […] Cytokine levels were normalized to DMSO-treated control cells. […] Nuclei were stained with DAPI. […] Depicted genes were measured by RT-qPCR. […] 16 h later Luciferase activity was measured. […] Flag-STING was immunoprecipitated and analysed by autoradiography.
HEK293T cells expressing murine STING with an N-terminal mCherry-tag ^28 were transfected using GeneJuice (Millipore) with a construct encoding for cyclic di-GMP synthase in conjunction with an IFN-• firefly luciferase reporter plasmid. 3 h after transfection cells were seeded in […] (Corning) coated with library compounds. For each compounds, a 40 nl volume was selected to obtain a concentration of 10 µM in the assay plates. The amount of DMSO in each well was normalised to 0.1%. After overnight treatment, cells were lysed in lysis buffer (25 mM Tris-phosphate (pH 7.8), 2 mM DTT, 2 mM 1,2-diaminocyclohexane-N,N,N',N'-tetraacetic acid, 10% glycerol, 1% Triton® X-100) for 20 min followed by the addition of firefly luciferase. Reporter activity was measured using a Tecan Infinite plate reader. The screen was performed using on ∼ 20.000 compounds from a chemically diverse compound collection available at the BSF core facility at EPFL.
In these cells, transient transfection of vectors encoding for cyclic di-GMP synthase (cdG-Syn) and an IFN-• reporter leads to robust induction of firefly luciferase activity. We used this system to perform a high-throughput chemical screen with a library of ∼ 20.000 small molecule compounds (Fig. 6b). To increase the selectivity of candidate compounds against the STING pathway, hits from the primary screen were counter-screened for their effect on RIG-I-driven activation of the IFN-• reporter. […] To further validate the two small molecules, we treated wild-type HEK293T cells with C-178 and C-176, in which STING was either expressed alone or in conjunction with cdG-Syn. […] We next conducted a limited structure-activity relationship (SAR) analysis. Since both C-178 and C-176 share a characteristic nitrofuran moiety, we prepared analogues of C-176/8 in which this structural motif was substituted (Fig. 1c).

BMDMs = test: RNA sequencing of BMDMs with or without CMA; type: cell-based, mouse; settings: pre-treatment with C-178, CMA
Method: as §1

[3] = target: T2, hsSTING(AA1-138)-mmSTING(AA138-378) (UniProt Q3TBT3+Q86WV6); test: IFN reporter in HEK293T cells, chimeric construct 1; type: cell-based; settings: reversed construct (human N-terminal, mouse C-terminal part); 0.5 µm
T2 construct: hsSTING(AA1-138)-mmSTING(AA138-378); expressed in transfected cells; host or cells: HEK293T
Method: as §1

STING [4] = target: T1, STING; test: Type I IFN bioassay of BMDMs stimulated with cGAMP; type: cell-based; design: endogenous in cells; host or cells: BMDMs from wild type mice; settings: BMDMs pre-treated, 0.02 µM- 2.5 µM, read-out: calculated IC50, production of type I IFNs
Method: as §1

TLR-4 = target: T3, TLR-4 (Mus musculus, UniProt Q9QUK6); test: Ifnb1 mRNA (RT-qPCR) in BMDMs stimulated with LPS (control); type: cell-based; settings: 0.25 µM
T3 construct: endogenous in cells; host or cells: BMDMs from wild type mice
T3 sequence (Q9QUK6 26-835): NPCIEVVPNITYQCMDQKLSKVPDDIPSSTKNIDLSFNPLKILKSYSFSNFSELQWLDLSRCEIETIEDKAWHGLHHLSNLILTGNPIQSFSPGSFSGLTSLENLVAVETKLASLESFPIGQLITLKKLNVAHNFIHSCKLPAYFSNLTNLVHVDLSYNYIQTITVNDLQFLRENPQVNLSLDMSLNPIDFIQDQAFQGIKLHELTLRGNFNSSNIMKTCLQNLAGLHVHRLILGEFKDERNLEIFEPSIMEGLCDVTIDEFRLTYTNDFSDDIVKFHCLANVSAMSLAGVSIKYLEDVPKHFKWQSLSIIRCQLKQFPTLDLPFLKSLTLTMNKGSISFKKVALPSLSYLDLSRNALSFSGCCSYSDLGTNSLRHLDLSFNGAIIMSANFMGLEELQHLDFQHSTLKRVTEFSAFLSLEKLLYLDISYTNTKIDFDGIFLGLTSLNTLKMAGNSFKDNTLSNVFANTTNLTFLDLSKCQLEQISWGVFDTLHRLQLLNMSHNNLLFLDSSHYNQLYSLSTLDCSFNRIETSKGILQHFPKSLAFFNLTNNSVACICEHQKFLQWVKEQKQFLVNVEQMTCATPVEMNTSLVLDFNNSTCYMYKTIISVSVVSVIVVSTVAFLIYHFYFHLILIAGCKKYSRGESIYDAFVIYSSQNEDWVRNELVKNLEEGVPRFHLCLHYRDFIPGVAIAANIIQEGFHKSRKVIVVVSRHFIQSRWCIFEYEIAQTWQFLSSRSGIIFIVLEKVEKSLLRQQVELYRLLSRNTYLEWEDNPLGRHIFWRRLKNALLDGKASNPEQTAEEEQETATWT
T3 sequence (Q9JHF9 19-160 partner): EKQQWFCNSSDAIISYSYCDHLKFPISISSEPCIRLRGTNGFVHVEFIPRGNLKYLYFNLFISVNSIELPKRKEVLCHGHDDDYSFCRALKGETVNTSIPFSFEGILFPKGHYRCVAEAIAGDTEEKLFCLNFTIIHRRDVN
Method: as §1

T2 sequence (Q86WV6 1-138, one chain of several): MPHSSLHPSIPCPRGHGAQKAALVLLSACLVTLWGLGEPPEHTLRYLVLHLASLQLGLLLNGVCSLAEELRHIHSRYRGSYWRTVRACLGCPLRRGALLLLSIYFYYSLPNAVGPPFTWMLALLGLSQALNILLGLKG

With `CCCCCCCCCCCCCCC(Br)C(=O)O` (centres unmarked) [2-bromopalmitate, reference compound] the “assembly of STING clusters” value (STING [1]) was “blocked”.

For `O=C(Nc1ccc(I)cc1)c1ccco1` [C-176-009], the “inhibitory capacity against STING” value (STING [2]; derivatives tested at 0.5 µM, HEK293T transfected with STING) was “inactive”.

`O=C(Nc1ccc2c(c1)oc1ccccc12)c1ccc([N+](=O)[O-])o1` [C-178, N-dibenzo[b,d]furan-3-yl-5-nitro-2-furamide] was tested, and the “significantly affected induced expression, number of the 500 most up-regulated genes after CMA” value (BMDMs) was 498, the “significantly affected induced expression, share of the 500 most up-regulated genes after CMA” value (BMDMs) was 99.6% and the “IFN reporter activity of chimeric construct” value [3] was “inactive”. For the same compound, the “half-maximal inhibitory concentration (IC50) values, IFN-• reporter activity” value (STING [2]; wild-type HEK293T, STING expressed alone or in conjunction with cdG-Syn, 0.01-5µM, 16 h) was “nanomolar”, the IC50 (STING [4]) was about 0.023 µM and the “activity against the TLR-4 agonist LPS” value (TLR-4) was “not active”.
